Test system: Plodia interpunctella adult females
Experiment: flight tunnel bioassay of attraction (upwind progress score)
Assay type: in vivo
Parameters: key to Score (flight tunnel bioassay): 0.25 per quarter line crossed; final 0.25 for contacting test subject
Details: for Score (flight tunnel bioassay): day 22 Plodia females, ten females per test, observed ten minutes, 0.25 per quarter line crossed and for contact
Experimental: All tests were conducted in a clear, acrylic flight chamber 75 cm (L), 22 cm (W), 24 cm (H). Room air was pushed through the chamber with a 115 volt, 0.35 Amp motor-driven roller fan. Air speed was maintained at 0.4 m/sec. The chamber was positioned horizontally on a table in a walk-in environmental chamber maintained at 30° C. and 65% R.H. The only light was provided by a 25 Watt red filtered incandescent bulb centrally positioned 90 cm above tunnel floor and providing 9.0 Lux at the floor center.
Insects used were laboratory reared Plodia interpuctella. Ten 4-day old adult females from a general rearing box were selected and transferred into a 7 dram screened plastic vial for each test. Tests were performed only during the first four hours of the scotophase. Test subjects consisted of either natural products held in a glass Petri dish (Kimax, 5 cm diameter) or liquid volatiles pipetted onto a filter paper disc (Whatman #3, 2.3 cm) held off the floor by a plastic disc (5 cm diameter). These were placed upwind. A test began when the vial containing the moths was placed on the floor down-wind and the lid of the vial was removed. Distance between vial and test material was 62 cm. […] A final 0.25 was scored for actually contacting the test subject. Individual moths were tested only once.
Volatiles from natural products were collected for twenty-four hours by passing commercial, compressed nitrogen through a 150 cm^3 glass collection chamber (Analytical Research Systems) connected by tubing to an inert filter trap of 20 mg SuperQ (Alltech Associates). The collected volatiles were eluted with 150 ul dichloromethane and then bioassayed in the flight tunnel and analyzed by GC-MS. The SuperQ filter traps were rinsed with 200 ul dichloromethane immediately before each use.

Row | SMILES | Score (flight tunnel bioassay) (Table 1) | Score (flight tunnel bioassay) (Table 2) | attractiveness alone (dilutions in dichloromethane, FIG. 3)
1 | CCCCC(C)=O [2-hexanone] | 3.63 | 3.63 | –
2 | CC1=CC[C@H]2[C@H]3[C@@H]1[C@]2(C)CC[C@H]3C(C)C [a-copaene] | 3.07 | 3.07 | –
3 | CC1(C)C2CCC1(C)C(O)C2 (stereo not drawn) [borneol] | 2.83 | 2.83 | –
4 | Cc1ccc(C(C)C)cc1 [cymene] | 3.00 | 3.00 | –
5 | CCCCCC=CCCC(=O)OCC [ethyl 4-decenoate] | 3.50 | 3.50 | –
6 | CCOc1cc(C=O)ccc1O [ethyl vanillin] | 2.63 | 2.63 | –
7 | CCCCCCOC(C)=O [hexyl acetate] | 3.60 | 3.60 | –
8 | CCCCCCCC(=O)OC [methyl octanoate] | 2.91 | 2.91 | –
9 | C=CC(=C)CCC=C(C)C [myrcene] | 2.95 | 2.95 | –
10 | CCC/C=C/CO [trans-2-hexen-1-ol] | 3.00 | 3.00 | –
11 | CCCCCCCCCCC [undecane] | – | – | unattractive alone
